Measurements published in the supplement of paper PMC11208160.

test: recombinant barcode read abundance after kanamycin selection (control-corrected) (log10(CPM+1)); higher = more efficient recombination; sequences stand for … in AGTGCAGAGAAAATCGGCCAGTTTTCTCTGCCTGCAGTCCGCATGCCGT…AGATTTATGCAGCGGACTGCCTTTCTCCCAAAGTGATAAACCGGACAGTATCATGGACCGGTTTTCCCGGTAATCCGTATTTGCAAGGTTGGTTTCACT; site = the 11-nt target
Method in brief: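 Recombination efficiency comes from barcode counts at recombinant junctions, converted to counts per million, averaged and corrected against the control. Values appear as log10(CPM+1). They were obtained from a pooled E. coli screen in which each oligo paired a target with an IS621 bridge RNA target-binding loop, and cells were plated in duplicate on chloramphenicol/ampicillin LB agar or on chloramphenicol/ampicillin/kanamycin with 0.1 mM IPTG.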
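Note: IS621 recombinase and bridge RNA in Escherichia coli cells.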

Sequence	recombinant barcode read abundance (log10)
AGGAACCCTTGGGTTCTAACCTGTTGCTA (site AGGAACCCTAA)	0.316
AGCAGTACTTGGGTTCTAACCTGTTGCTA (site TTGGAGGCTAG)	0.248
CAAACTCCTTGGGTTCTAACCTGTTGCTT (site CAAACTCCTAG)	0.221
TTGTCGACTTGGGTTCTAACCTGTTGCCA (site TTGCCGACTTG)	0.0807
TGAAATACTTGGGTTCTAACCTGTTGCCT (site TGAATTACTAG)	0.00965
TGTGGAGCTTGGGTTCTAACCTGTTGCCG (site TGTAGAGCTCG)	0.448
GCTTGAGCTTGGGTTCTAACCTGTTGCCT (site GCATGAGCTAG)	0.421
CTCCGCCCTTGGGTTCTAACCTGTTGCCT (site CTCCGTCCTAC)	0.0714
CGTCCTGCTTGGGTTCTAACCTGTTGCTT (site CGTCCTGCTAA)	0.527
CTGAGCCCTTGGGTTCTAACCTGTTGCTG (site CAGAGCCCTCA)	0.327
TTGGGCACTTGGGTTCTAACCTGTTGCCT (site TTGGCCACTAG)	0.176
AAACGACCTTGGGTTCTAACCTGTTGCCT (site TAACGACCTAG)	0.801
CAGAGTCCTTGGGTTCTAACCTGTTGCAT (site CAGAGTCCTAT)	1.88
GTCACCTCTTGGGTTCTAACCTGTTGCCT (site GTCCCCTCTAG)	0.0973
CCTGGGACTTGGGTTCTAACCTGTTGCGC (site CCTGGGACTGC)	1.24
CCGGGGTCTTGGGTTCTAACCTGTTGCCT (site TCGGGGTCTAG)	0.0922
CATCGCTCTTGGGTTCTAACCTGTTGCTT (site CACCGTTCTAA)	0.0858
GTATGGTCTTGGGTTCTAACCTGTTGCGT (site GTATCGTCTAG)	0.0442
TATAGTACTTGGGTTCTAACCTGTTGCCT (site TATTGTCCTAG)	0.0337
TCATGGGCTTGGGTTCTAACCTGTTGCAG (site TCATGGGCTCT)	1.92
CGGCTGACTTGGGTTCTAACCTGTTGCCT (site CGGCTGACTAG)	1.46
GCACCCTCTTGGGTTCTAACCTGTTGCCT (site GCACACTCTAG)	0.0655

Sequence	recombinant barcode read abundance (log10)
CTTCAGCCTTGGGTTCTAACCTGTTGCCT (site CTTCATCCTAG)	0
GTGTCTCCTTGGGTTCTAACCTGTTGCAT (site GTGTCTCCTAT)	1.54
TAGCTCACTTGGGTTCTAACCTGTTGCGG (site TAGCGCACTCC)	0.791
TGCGACTCTTGGGTTCTAACCTGTTGCCT (site TGGGACTCTAG)	0.0561
AGTCGGTCTTGGGTTCTAACCTGTTGCAT (site AGTCGGTCTAT)	0.813
GGCATTCCTTGGGTTCTAACCTGTTGCCT (site GGCACTCCTAG)	0.0331
TACGAATCTTGGGTTCTAACCTGTTGCCG (site TACGAATCTAG)	0.235
GGACGAGCTTGGGTTCTAACCTGTTGCTG (site GGACGAGCTCA)	2.46
GGATTGTCTTGGGTTCTAACCTGTTGCTT (site GGCTAGTCTAA)	0.0862
GATGGGACTTGGGTTCTAACCTGTTGCCG (site GATAGGACTAG)	0.0533
CCTGGGACTTGGGTTCTAACCTGTTGCGC (site CCTGGGACTCC)	0.347
CAAACTCCTTGGGTTCTAACCTGTTGCTT (site CAAACTCCTAT)	0.0809
TAGGAGACTTGGGTTCTAACCTGTTGCGT (site TAGGATACTAC)	0.233
ACATGTACTTGGGTTCTAACCTGTTGCAG (site ACATGTACTCT)	1.28
GCTCCATCTTGGGTTCTAACCTGTTGCCT (site GGTCCATCTAG)	0.122
GTGAAAGCTTGGGTTCTAACCTGTTGCCA (site GTGGAAGCTTG)	0.0113
GACGGACCTTGGGTTCTAACCTGTTGCAT (site GACGGACCTAT)	2.13
TCAAGACCTTGGGTTCTAACCTGTTGCCG (site TCAAGACCTAG)	0.179
GCAAGGGCTTGGGTTCTAACCTGTTGCCG (site GCAAGGGCTCG)	1.24
TCGTGCACTTGGGTTCTAACCTGTTGCCT (site TCGTGCTCTAG)	0.178
CTTCAGCCTTGGGTTCTAACCTGTTGCCT (site CTTCAGCCTAG)	0.789
CTCTTGGCTTGGGTTCTAACCTGTTGCCT (site CTCTAGGCTAG)	0.261

Sequence	recombinant barcode read abundance (log10)
CTAACCACTTGGGTTCTAACCTGTTGCCA (site CTAACTACTAG)	0.0393
GTTTGCCCTTGGGTTCTAACCTGTTGCTT (site GTTTGTCCTAA)	0.164
TTAACGGCTTGGGTTCTAACCTGTTGCCT (site TTCACGGCTAG)	0.186
TGCGACTCTTGGGTTCTAACCTGTTGCCT (site TGCGACTCTAG)	1.5
TCATGGGCTTGGGTTCTAACCTGTTGCAG (site AGGGTTCCTAA)	0.457
CATCGAGCTTGGGTTCTAACCTGTTGCCG (site CAGCGAGCTCG)	0.236
AGGTTCCCTTGGGTTCTAACCTGTTGCTT (site AGGTTCCCTCA)	0.0899
TTCTGTGCTTGGGTTCTAACCTGTTGCCT (site TTCTGGGCTAG)	0.0555
CTCTATACTTGGGTTCTAACCTGTTGCCA (site CTCTACACTTG)	0.102
TATACTACTTGGGTTCTAACCTGTTGCCT (site TATACTGCTAG)	0.0258
ACGAGCGCTTGGGTTCTAACCTGTTGCCT (site ACGACCGCTAG)	0.0589
GCGGAAGCTTGGGTTCTAACCTGTTGCCT (site GCGGAAGCTAG)	0.312
AGGTCACCTTGGGTTCTAACCTGTTGCTT (site AGGTCACCTAA)	0.941
CCGGAGCCTTGGGTTCTAACCTGTTGCCT (site CCGTAGCCTAG)	0.413
GTCTTATCTTGGGTTCTAACCTGTTGCCT (site GTCTTATCTAG)	1.14
CATGCGCCTTGGGTTCTAACCTGTTGCGG (site CATGCGCCTCC)	1.26
AGGCGCCCTTGGGTTCTAACCTGTTGCAC (site AGGCGCCCTCT)	0.112
AGGCTCCCTTGGGTTCTAACCTGTTGCCT (site AGACTCCCTAG)	0.193
TAGGAGACTTGGGTTCTAACCTGTTGCCC (site TAGGAGACTGG)	1.99
GTTGACCCTTGGGTTCTAACCTGTTGCCT (site GTAGACCCTCG)	0.0195
CTTCGAGCTTGGGTTCTAACCTGTTGCCG (site CTTCGAGCTCT)	0.138
ACTGGTACTTGGGTTCTAACCTGTTGCCT (site ACTGGTACTAG)	1.22

Sequence	recombinant barcode read abundance (log10)
AGGAGCCCTTGGGTTCTAACCTGTTGCCT (site AGGAGCCCTTG)	0.0624
ACTAGCTCTTGGGTTCTAACCTGTTGCTA (site ACTAGCTCTTA)	0.145
GCGGTGACTTGGGTTCTAACCTGTTGCCT (site ACGGTGACTAG)	0.942
GCGCCTCCTTGGGTTCTAACCTGTTGCAT (site GCGTCTCCTAT)	0.0165
ATCTTAGCTTGGGTTCTAACCTGTTGCCT (site ATCTTAGCTAG)	0.266
AAGGAGACTTGGGTTCTAACCTGTTGCCT (site AAGGAGACTAG)	2.12
TCTGGAGCTTGGGTTCTAACCTGTTGCAG (site TCTGGAGCTCT)	0.938
CGAGCTCCTTGGGTTCTAACCTGTTGCTT (site CGAGCTCCTAA)	0.324
ACTTGAGCTTGGGTTCTAACCTGTTGCAG (site ACTTGAGCTCT)	1.48
AGAGTCCCTTGGGTTCTAACCTGTTGCGG (site AGAGTCTCTCA)	0.295
AGTTCTCCTTGGGTTCTAACCTGTTGCCT (site TGTTCTCCTAG)	0.456
ACCCAGCCTTGGGTTCTAACCTGTTGCAT (site ACCCAGCCTAA)	1.4
GCTTGTTCTTGGGTTCTAACCTGTTGCCT (site GCTTGTTCTAG)	0.233
AAGACCTCTTGGGTTCTAACCTGTTGCCT (site TAGACCTCTAG)	1.29
AGGCCCACTTGGGTTCTAACCTGTTGCAT (site GCTGAGTCTTA)	0.109
TTAGGGCCTTGGGTTCTAACCTGTTGCCT (site TTAGGGTCTAG)	0.0494
CTACACCCTTGGGTTCTAACCTGTTGCTT (site CTACAGCCTAA)	0.296
GACAGCCCTTGGGTTCTAACCTGTTGCTG (site GTCAGCCCTCA)	0.0582
GTTTGATCTTGGGTTCTAACCTGTTGCCT (site GTTTGCTCTAG)	0.029
TCACGTCCTTGGGTTCTAACCTGTTGCTT (site TCACGTCCTAG)	0.262
